Test results as given in BindingDB's records for doi:10.1016/j.ejmech.2016.03.038 (Glaxosmithkline, 2016).

What was measured:
[1] = Inhibition of pseudotype HIV1 integrase strand transfer activity assessed as reduction in viral replication in HIV1 infected human CIP4 cells after 2 days by luciferase reporter gene assay
[2] = Inhibition of pseudotype HIV1 integrase strand transfer activity assessed as reduction in viral replication in HIV1 infected human CIP4 cells after 2 days in presence of 40% human serum albumin by luciferase reporter gene assay

Compound	IC50 [1]	IC50 [2]
O=C(NCc1ccc(F)cc1)c1cn2c(c(O)c1=O)C(=O)N1CCCO[C@H]1C2	2 nM	
O=C1c2c(cc3cc(Cc4cccc(Cl)c4F)cnc3c2O)CN2CCCN12	16 nM	136 nM
N#Cc1c2c(c(O)c3ncc(Cc4cccc(Cl)c4F)cc13)C(=O)N1CCCN1C2	2.2 nM	415 nM
N#Cc1c2c(c(O)c3ncc(Cc4cccc(Cl)c4F)cc13)C(=O)N1CCC[C@@H]1C2	7 nM	4540 nM
N#Cc1c2c(c(O)c3ncc(Cc4cccc(Cl)c4F)cc13)C(=O)N1CCC[C@H]1C2	14 nM	66 nM
N#Cc1c2c(c(O)c3ncc(Cc4cccc(Cl)c4F)cc13)C(=O)N1CCCC[C@H]21	15 nM	457 nM
N#Cc1c2c(c(O)c3ncc(Cc4cccc(Cl)c4F)cc13)C(=O)N1CCCC[C@@H]21	18 nM	1280 nM
N#Cc1c2c(c(O)c3ncc(Cc4cccc(Cl)c4F)cc13)C(=O)N1CCC[C@H]21	5 nM	294 nM
N#Cc1c2c(c(O)c3ncc(Cc4cccc(Cl)c4F)cc13)C(=O)N1CCC[C@@H]21	10 nM	3320 nM
NC(=O)c1c2c(c(O)c3ncc(Cc4cccc(Cl)c4F)cc13)C(=O)N1CCC[C@@H]1C2	8 nM	30 nM
NC(=O)c1c2c(c(O)c3ncc(Cc4cccc(Cl)c4F)cc13)C(=O)N1CCC[C@H]1C2	3 nM	15 nM
NC(=O)c1c2c(c(O)c3ncc(Cc4cccc(Cl)c4F)cc13)C(=O)N1CCCC[C@H]21	0.7 nM	1 nM
NC(=O)c1c2c(c(O)c3ncc(Cc4cccc(Cl)c4F)cc13)C(=O)N1CCCC[C@@H]21	0.6 nM	2 nM
Cn1c(=O)c(C(=O)NCCO)c(O)c2ncc(Cc3ccc(F)cc3)cc21 [GSK364735]	3 nM	
